The values that follow are results of earlier work, collected in PMC9751883, “Discovery of new potent lysine specific histone demythelase-1 inhibitors (LSD-1) using structure based and ligand based molecular modelling and machine learning” (RSC Advances, 2022).

Structures are written as SMILES. Where two headings read alike, the source gives them in different places. Where only a bound is given, the exact number is not on record here.

This data set addresses T1, LSD-1 (Homo sapiens, UniProt O60341).
T1 construct: purchased Cayman Chemical-USA 700120
The note with it: cited from earlier work.

[1] abbreviates: Tables SM1 and SM2, read-out: IC50.

A word on the IC50: it is the concentration needed to halve the response being measured. As to `Cn1c(C(=O)Nc2ccccc2COc2ccc(OC3CCN(Cc4ccccc4)CC3)cc2)cc2sccc21` [Cpd 239], under setting [1], the IC50 was 100 µM. Consider `Cn1c(C(=O)Nc2ccccc2COc2ccc(OC3CCCNCC3)cc2)cc2sccc21` (stereo not shown) [Cpd 240], for which the IC50 under setting [1] is 0.064 µM.

Consider `Cn1c(C(=O)Nc2ccccc2COc2ccc(OC3CCC(N)CC3)cc2)cc2sccc21` (stereo not shown) [Cpd 241], for which the half-inhibitory concentration (IC50) under setting [1] was 0.34 µM. Turning to `CNCCCOc1ccc(OCc2ccccc2NC(=O)c2cc3sccc3n2C)cc1` [Cpd 242], the IC50 under setting [1] was 1.3 µM. Turning to `Cn1c(C(=O)Nc2ccccc2OCC2CCN(CC3CCNCC3)CC2)cc2sccc21` [Cpd 243], under setting [1], the IC50 was 1.7 µM.

`COCc1cccc(NC(=O)c2cc3sccc3n2C)c1COc1ccc(OCC2CCNC2)cc1` (stereo not shown) [Cpd 244]: under setting [1], the IC50 is 0.0084 µM. With `COCc1cccc(NC(=O)c2cc3sccc3n2C)c1COc1ccc(OC2CCCNCC2)cc1` (stereo not shown) [Cpd 245], the IC50 under setting [1] is 0.0292 µM. As for `CCOCc1cccc(NC(=O)c2cc3sccc3n2C)c1COc1ccc(OCC2CCNC2)cc1` (stereo not shown) [Cpd 246], the concentration for half-maximal inhibition (IC50) (ref ESI Table SM2, read-out: IC50 of the complexed ligand in 5LHI) is 0.0078 µM. Take `CCOCc1cccc(NC(=O)c2cc3sccc3n2C)c1COc1ccc(OC2CCNCC2)cc1` [Cpd 247]: the IC50 under setting [1] is 0.056 µM.

With `Cn1c(C(=O)Nc2cccc(CN3CCOCC3)c2COc2ccc(OC3CCNCC3)cc2)cc2sccc21` [Cpd 248], the IC50 under setting [1] is 0.065 µM. Also, where the note is “potent inhibitors selected for docking, ref Table SM1”, the “Ki or IC50” value is ≤ 0.2 µM. By Ki is commonly meant a dissociation constant, usually derived from enzyme kinetics or from competition with a known ligand. As for `c1ccc(-c2cc(OCC3CCNCC3)cnc2-c2ccccc2)cc1` [Cpd 250], under “Table SM1”, the inhibition constant Ki is 50 µM.

As for `C#Cc1ccc(-c2cc(OCC3CCNCC3)cnc2-c2ccc(C)cc2)cc1` [Cpd 259], where the note is “Table SM1”, the inhibitory constant (Ki) is 50 µM. For `Cc1ccc(-c2ncc(OCC3CCNCC3)cc2-c2ccc(C(=O)O)cc2)cc1` [Cpd 260], under “Table SM1”, the inhibition constant (Ki) was 50 µM.

Consider `Cc1ccc(-c2ncc(OCC3CCNCC3)cc2-c2ccc(CO)cc2)cc1` [Cpd 261], for which, for the setting “Table SM1”, the inhibition constant (Ki) is 50 µM. For `Cc1ccc(-c2ncc(OCC3CCNCC3)cc2-c2ccc(C(=O)N3CCCCC3)cc2)cc1` [Cpd 262], the inhibitory constant (Ki) (Table SM1) was 50 µM.

On to `Cc1ccc(-c2ncc(OCC3CCNCC3)cc2-c2ccc(C(=O)N3CCOCC3)cc2)cc1` [Cpd 263], for which the inhibition constant (Ki) (Table SM1) was 50 µM. On to `Cc1ccc(-c2ncc(OCC3CCNCC3)cc2-c2ccc(C(=O)N3CCNCC3)cc2)cc1` [Cpd 264], for which the Ki (Table SM1) is 50 µM.

Turning to `CC(=NNC(=O)c1cccc(S(=O)(=O)N2CCOCC2)c1)c1cccc2ccccc12` [Cpd 272], under “Table SM1, read-out: IC50”, the IC50 was 10 µM. Turning to `CC(=NNC(=O)c1cccc(S(=O)(=O)N2CCOCC2)c1)c1cc(Cl)ccc1O` [Cpd 273], the IC50 (Table SM1, read-out: IC50) is 0.013 µM. With `CC(=NNC(=O)c1cccc(S(=O)(=O)N2CCOCC2)c1)c1ccnc(Cl)c1` [Cpd 274], the IC50 (Table SM1, read-out: IC50) is 3 µM.

Regarding `CC(=NNC(=O)c1cccc(S(=O)(=O)N2CCOCC2)c1)c1cccnc1` [Cpd 275], where the note is “Table SM1, read-out: IC50”, the IC50 was 3 µM. In the case of `C#CCNCCCCC(NC(=O)c1ccccc1)C(=O)OC(C)(C)C` (stereo not shown) [Cpd 277], the IC50 (Table SM1, read-out: IC50) was 144 µM. As for `CC(=O)c1csc(NC(=O)c2ccccc2)n1` [Cpd 280], the IC50 (Table SM1, read-out: IC50) was 188 µM. Turning to `CC(=O)c1csc(NC(=O)Nc2ccccc2)n1` [Cpd 281], for the setting “Table SM1, read-out: IC50”, the IC50 was 188 µM.
